According to ChEMBL document CHEMBL1201861, “Genomics of Drug Sensitity in Cancer screening data, Wellcome Trust Sanger Institute”:
“And” between values parts separate entries of the source, which are not always exact repeats. Equal values may be shown once.

Columns and labels:
Assay in all cases: cells
SiHa = assay type: functional, cell-based, Homo sapiens;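 further: Viability-based readout of growth inhibition in SiHa cells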
Description: SANGER: Inhibition of human SiHa cell growth in a cell viability assay.

KYSE-270 = assay type: functional, cell-based, Homo sapiens; conditions: kyse-270;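 further: cell growth inhibition measured with a viability assay in the human KYSE-270 line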
Description: SANGER: Inhibition of human KYSE-270 cell growth in a cell viability assay.

COR-L105 = assay type: functional, cell-based, Homo sapiens; conditions: cor-l105;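 further: cell growth inhibition determined with a viability assay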
Description: SANGER: Inhibition of human COR-L105 cell growth in a cell viability assay.

HCC1569 = assay type: functional, cell-based, Homo sapiens; conditions: hcc1569;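 further: growth inhibition of human HCC1569 cells, read out with a cell viability assay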
Description: SANGER: Inhibition of human HCC1569 cell growth in a cell viability assay.

UACC-257 = assay type: functional, cell-based, Homo sapiens
Description: SANGER: Inhibition of human UACC-257 cell growth in a cell viability assay.

SW872 = assay type: functional, cell-based, Homo sapiens;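 further: growth inhibition of SW872 cells, read out by a viability assay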
Description: SANGER: Inhibition of human SW872 cell growth in a cell viability assay.

WM-115 = assay type: functional, cell-based, Homo sapiens; conditions: wm-115
Description: SANGER: Inhibition of human WM-115 cell growth in a cell viability assay.

Lu-65 = assay type: functional, cell-based; conditions: Homo sapiens;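 further: growth inhibition of Lu-65 cancer cells, read out by a cell viability assay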
Description: SANGER: Inhibition of human LU-65 cell growth in a cell viability assay.

ES7 = assay type: functional, cell-based, Homo sapiens;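 further: growth inhibition of cultured human ES7 cells, read out as cell viability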
Description: SANGER: Inhibition of human ES7 cell growth in a cell viability assay.

NCI-H2087 = assay type: functional, cell-based, Homo sapiens;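 further: growth inhibition determined with a cell viability readout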
Description: SANGER: Inhibition of human NCI-H2087 cell growth in a cell viability assay.

EKVX = assay type: functional, cell-based, Homo sapiens;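 further: growth inhibition of human EKVX cells, read out with a cell viability assay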
Description: SANGER: Inhibition of human EKVX cell growth in a cell viability assay.

NCI-H82 = assay type: functional, cell-based; conditions: Homo sapiens;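 further: growth inhibition of NCI-H82 cells, measured with a cell viability readout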
Description: SANGER: Inhibition of human NCI-H82 cell growth in a cell viability assay.

TGBC24TKB = assay type: functional, cell-based, Homo sapiens;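 further: growth inhibition of human TGBC24TKB cells, read out with a cell viability assay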
Description: SANGER: Inhibition of human TGBC24TKB cell growth in a cell viability assay.

SH-4 = assay type: functional, cell-based, Homo sapiens;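 further: growth inhibition of SH-4 cells, read out with a cell viability assay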
Description: SANGER: Inhibition of human SH-4 cell growth in a cell viability assay.

A704 = assay type: functional, cell-based, Homo sapiens;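 further: growth inhibition of human A704 cells, read out with a cell viability assay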
Description: SANGER: Inhibition of human A704 cell growth in a cell viability assay.

CCRF-CEM = assay type: functional, cell-based; conditions: Homo sapiens;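 further: inhibition of CCRF-CEM cell growth, measured by a cell viability assay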
Description: SANGER: Inhibition of human CCRF-CEM cell growth in a cell viability assay.

NCI-H292 = assay type: functional, cell-based, Homo sapiens; conditions: nci-h292;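 further: growth inhibition of NCI-H292 cells, read out with a cell viability assay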
Description: SANGER: Inhibition of human NCI-H292 cell growth in a cell viability assay.

NCI-H1395 = assay type: functional, cell-based, Homo sapiens;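 further: cell viability assay read-out quantifying reduced proliferation of human NCI-H1395 cells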
Description: SANGER: Inhibition of human NCI-H1395 cell growth in a cell viability assay.

NKM-1 = assay type: functional, cell-based; conditions: Homo sapiens;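 further: growth inhibition of NKM-1 cells, read out with a cell viability assay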
GP5d = assay type: functional, cell-based, Homo sapiens;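 further: growth inhibition of human GP5d cells, read out with a cell viability assay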
Description: SANGER: Inhibition of human GP5d cell growth in a cell viability assay.

LB1047-RCC = assay type: functional, cell-based, Homo sapiens;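 further: inhibition of cell growth, determined with a cell viability assay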
Description: SANGER: Inhibition of human LB1047-RCC cell growth in a cell viability assay.

ATN-1 = assay type: functional, cell-based; conditions: Homo sapiens;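 further: growth inhibition of human ATN-1 cells, read out with a cell viability assay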
Description: SANGER: Inhibition of human ATN-1 cell growth in a cell viability assay.

NCI-H596 = assay type: functional, cell-based, Homo sapiens; conditions: nci-h596;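 further: growth inhibition of NCI-H596 cells, read out with a cell viability assay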
Description: SANGER: Inhibition of human NCI-H596 cell growth in a cell viability assay.

EW-24 = assay type: functional, cell-based; conditions: Homo sapiens;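 further: human EW-24 cancer cell line, growth inhibition read out via a cell viability assay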
Description: SANGER: Inhibition of human EW-24 cell growth in a cell viability assay.

HH = assay type: functional, cell-based; conditions: Homo sapiens
Description: SANGER: Inhibition of human HH cell growth in a cell viability assay.

CAL-62 = assay type: functional, cell-based, Homo sapiens; conditions: cal-62;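 further: growth inhibition of CAL-62 cells, read out with a cell viability assay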
Description: SANGER: Inhibition of human CAL-62 cell growth in a cell viability assay.

COLO-679 = assay type: functional, cell-based, Homo sapiens
Description: SANGER: Inhibition of human COLO-679 cell growth in a cell viability assay.

no-11 = assay type: functional, cell-based, Homo sapiens;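 further: growth inhibition of human NO-11 cells, read out with a cell viability assay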
Description: SANGER: Inhibition of human no-11 cell growth in a cell viability assay.

CWR22R = assay type: functional, cell-based, Homo sapiens;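 further: growth inhibition of 22Rv1 cells, read out with a cell viability assay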
Description: SANGER: Inhibition of human 22RV1 cell growth in a cell viability assay.

RKO = assay type: functional, cell-based, Homo sapiens;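 further: growth inhibition of human RKO cells, read out with a cell viability assay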
BE-13 = assay type: functional, cell-based; conditions: Homo sapiens;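 further: growth inhibition of human BE-13 cells, measured with a cell viability assay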
Description: SANGER: Inhibition of human BE-13 cell growth in a cell viability assay.

NCI-H358 = assay type: functional, cell-based, Homo sapiens; conditions: nci-h358;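 further: growth inhibition of NCI-H358 human cells, read out with a cell viability assay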
Description: SANGER: Inhibition of human NCI-H358 cell growth in a cell viability assay.

CP50-MEL-B = assay type: functional, cell-based, Homo sapiens; conditions: cp50-mel-b;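 further: growth inhibition of the human cell line, measured with a cell viability read-out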
Description: SANGER: Inhibition of human CP50-MEL-B cell growth in a cell viability assay.

S-117 = assay type: functional, cell-based, Homo sapiens; conditions: s-117
Description: SANGER: Inhibition of human S-117 cell growth in a cell viability assay.

CAL-33 = assay type: functional, cell-based, Homo sapiens;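 further: growth inhibition of CAL-33 cells, read out with a cell viability assay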
Description: SANGER: Inhibition of human CAL-33 cell growth in a cell viability assay.

LAN-6 = assay type: functional, cell-based, Homo sapiens;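 further: growth inhibition of LAN-6 cells, determined with a cell viability assay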
Description: SANGER: Inhibition of human LAN-6 cell growth in a cell viability assay.

NCI-H2347 = assay type: functional, cell-based, Homo sapiens;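 further: growth inhibition of the cell line, read out with a cell viability assay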
Description: SANGER: Inhibition of human NCI-H2347 cell growth in a cell viability assay.

GCIY = assay type: functional, cell-based, Homo sapiens;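 further: growth inhibition of the human GCIY cell line, read out by a cell viability assay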
Description: SANGER: Inhibition of human GCIY cell growth in a cell viability assay.

C-33-A = assay type: functional, cell-based, Homo sapiens; conditions: c-33-a;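 further: cell viability assay measuring growth inhibition of C-33-A cells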
Description: SANGER: Inhibition of human C-33-A cell growth in a cell viability assay.

ESS-1 = assay type: functional, cell-based, Homo sapiens;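 further: growth inhibition of human ESS-1 cells, read out by a cell viability assay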
Description: SANGER: Inhibition of human ESS-1 cell growth in a cell viability assay.

MG-63 = assay type: functional, cell-based, Homo sapiens; conditions: mg-63;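 further: growth inhibition of human MG-63 cells, read out with a cell viability assay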
Description: SANGER: Inhibition of human MG-63 cell growth in a cell viability assay.

SK-N-AS = assay type: functional, cell-based, Homo sapiens;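 further: growth inhibition of human SK-N-AS cells, measured with a cell viability assay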
Description: SANGER: Inhibition of human SK-N-AS cell growth in a cell viability assay.

D-392MG = assay type: functional, cell-based, Homo sapiens; conditions: d-392mg
IST-MES1 = assay type: functional, cell-based, Homo sapiens;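 further: growth inhibition of IST-MES1 cells, measured with a cell viability assay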
Description: SANGER: Inhibition of human IST-MES1 cell growth in a cell viability assay.

KG-1 = assay type: functional, cell-based; conditions: Homo sapiens;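 further: growth inhibition of KG-1 cells, read out by a cell viability assay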
RH-1 = assay type: functional, cell-based, Homo sapiens;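 further: growth inhibition of human RH-1 cells, read out with a cell viability assay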
SW1573 = assay type: functional, cell-based, Homo sapiens; conditions: sw1573;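 further: growth inhibition of SW1573 cells, read out with a cell viability assay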
Description: SANGER: Inhibition of human SW1573 cell growth in a cell viability assay.

KLE = assay type: functional, cell-based, Homo sapiens;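 further: growth inhibition of human KLE cells, read out with a cell viability assay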
Description: SANGER: Inhibition of human KLE cell growth in a cell viability assay.

A-431 = assay type: functional, cell-based, Homo sapiens; conditions: a-431;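 further: growth inhibition of A-431 cells, determined with a cell viability read-out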
Description: SANGER: Inhibition of human A431 cell growth in a cell viability assay.

OS-RC-2 = assay type: functional, cell-based, Homo sapiens;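 further: growth inhibition of human OS-RC-2 cells, measured by a cell viability assay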
Description: SANGER: Inhibition of human OS-RC-2 cell growth in a cell viability assay.

`Cc1cc([C@@H](C)Nc2ccccc2C(=O)O)c2nc(N3CCOCC3)cc(=O)n2c1` [AZD-6482] showed an IC50 (SiHa; Homo sapiens, SiHa) of over 5.12 µM, an IC50 (SiHa; siha) of over 5.12 µM and an IC50 (KYSE-270) of over 5.12 µM. The IC50 (COR-L105) was over 5.12 µM, the IC50 (HCC1569) was 3.29 µM and > 5.12 µM and the IC50 (UACC-257; Homo sapiens, UACC-257) was over 5.12 µM. For the same molecule, the IC50 (UACC-257; uacc-257) was over 5.12 µM, the IC50 (SW872; sw872) was > 5.12 µM and 3.09 µM and the IC50 (WM-115) was over 5.12 µM. The IC50 (Lu-65) was over 5.12 µM, the IC50 (ES7; es7) was 0.813 µM and 3.26 µM and the IC50 (NCI-H2087; Homo sapiens, NCI-H2087) was over 5.12 µM. For the same molecule, the IC50 (NCI-H2087; nci-h2087) was over 5.12 µM, the IC50 (EKVX; ekvx) was over 5.12 µM and the IC50 (NCI-H82) was over 5.12 µM. The IC50 (TGBC24TKB; tgbc24tkb) was over 5.12 µM, the IC50 (SH-4; sh-4) was over 5.12 µM and the IC50 (A704; a704) was > 5.12 µM and 3.31 µM. The IC50 (CCRF-CEM) was 3.61 µM, the IC50 (NCI-H292) was 3.65 µM and 1.56 µM and the IC50 (NCI-H1395; nci-h1395) was over 5.12 µM. It also gave an IC50 (NKM-1) of 1.29 µM, an IC50 (GP5d; Homo sapiens, GP5d) of over 5.12 µM and an IC50 (GP5d; gp5d) of over 5.12 µM. The IC50 (LB1047-RCC; Homo sapiens, LB1047-RCC) was over 5.12 µM, the IC50 (LB1047-RCC; lb1047-rcc) was over 5.12 µM and the IC50 (ATN-1) was over 5.12 µM. It also gave an IC50 (NCI-H596) of over 5.12 µM, an IC50 (EW-24) of over 5.12 µM and an IC50 (HH) of 0.962 µM. It also gave an IC50 (CAL-62) of over 5.12 µM, an IC50 (COLO-679; Homo sapiens, COLO-679) of over 5.12 µM and an IC50 (COLO-679; colo-679) of over 5.12 µM. The IC50 (no-11) was over 5.12 µM, the IC50 (CWR22R; Homo sapiens, 22Rv1) was over 5.12 µM and the IC50 (CWR22R; cwr22r) was over 5.12 µM. The IC50 (RKO; Homo sapiens, RKO) was 3.06 µM, the IC50 (RKO; rko) was 3.19 µM and the IC50 (BE-13) was over 5.12 µM. The IC50 (NCI-H358) was over 5.12 µM, the IC50 (CP50-MEL-B) was over 5.12 µM and the IC50 (S-117) was over 5.12 µM. It also gave an IC50 (CAL-33; Homo sapiens, CAL-33) of 1.49 µM, an IC50 (CAL-33; cal-33) of 2.55 µM and an IC50 (LAN-6; lan-6) of over 5.12 µM. For the same molecule, the IC50 (NCI-H2347; Homo sapiens, NCI-H2347) was over 5.12 µM, the IC50 (NCI-H2347; nci-h2347) was over 5.12 µM and the IC50 (GCIY; gciy) was > 5.12 µM and 2.2 µM. For the same molecule, the IC50 (C-33-A) was over 5.12 µM, the IC50 (ESS-1; Homo sapiens, ESS-1) was over 5.12 µM and the IC50 (ESS-1; ess-1) was over 5.12 µM. The IC50 (MG-63) was > 5.12 µM and 1.59 µM, the IC50 (SK-N-AS; Homo sapiens, SK-N-AS) was over 5.12 µM and the IC50 (SK-N-AS; sk-n-as) was over 5.12 µM. The IC50 (D-392MG) was over 5.12 µM, the IC50 (IST-MES1; ist-mes1) was over 5.12 µM and the IC50 (KG-1) was over 5.12 µM. The IC50 (RH-1; rh-1) was over 5.12 µM, the IC50 (SW1573) was over 5.12 µM and the IC50 (KLE; kle) was over 5.12 µM. For the same molecule, the IC50 (A-431) was over 5.12 µM and the IC50 (OS-RC-2; os-rc-2) was 0.624 µM and > 5.12 µM.

`CCC(=O)N1CCN(c2ccc(-n3c(=O)ccc4cnc5ccc(-c6cnc7ccccc7c6)cc5c43)cc2C(F)(F)F)CC1` [TORIN1] was tested, and the IC50 (UACC-257; Homo sapiens, UACC-257) was 0.0983 µM, the IC50 (SW872; Homo sapiens, SW872) was 0.0225 µM and the IC50 (Lu-65) was over 1.2 µM. The IC50 (ES7; Homo sapiens, ES7) was over 1.2 µM, the IC50 (EKVX; Homo sapiens, EKVX) was 0.445 µM and the IC50 (NCI-H82) was 0.141 µM. For the same molecule, the IC50 (TGBC24TKB; Homo sapiens, TGBC24TKB) was 0.058 µM, the IC50 (SH-4; Homo sapiens, SH-4) was 0.0358 µM and the IC50 (A704; Homo sapiens, A704) was 0.0974 µM. It also gave an IC50 (CCRF-CEM) of 0.0337 µM, an IC50 (NCI-H1395; Homo sapiens, NCI-H1395) of over 1.2 µM and an IC50 (NKM-1) of 0.987 µM. The IC50 (LB1047-RCC; Homo sapiens, LB1047-RCC) was 0.0249 µM, the IC50 (ATN-1) was 0.0279 µM and the IC50 (EW-24) was over 1.2 µM. The IC50 (HH) was 0.135 µM, the IC50 (no-11; Homo sapiens) was 0.014 µM and the IC50 (RKO; Homo sapiens, RKO) was 0.0153 µM. The IC50 (BE-13) was 0.0376 µM, the IC50 (LAN-6; Homo sapiens, LAN-6) was over 1.2 µM and the IC50 (GCIY; Homo sapiens, GCIY) was 0.0101 µM. The IC50 (IST-MES1; Homo sapiens, IST-MES1) was 0.235 µM, the IC50 (KG-1) was over 1.2 µM and the IC50 (RH-1; Homo sapiens, RH-1) was 0.28 µM. It also gave an IC50 (KLE; Homo sapiens, KLE) of 0.0658 µM and an IC50 (OS-RC-2; Homo sapiens, OS-RC-2) of 0.0232 µM.

With `CN1CCN(CCOc2cc(OC3CCOCC3)c3c(Nc4c(Cl)ccc5c4OCO5)ncnc3c2)CC1` [SARACATINIB] the IC50 (UACC-257; Homo sapiens, UACC-257) was over 2 µM, the IC50 (SW872; Homo sapiens, SW872) was over 2 µM and the IC50 (Lu-65) was over 2 µM. It also gave an IC50 (ES7; Homo sapiens, ES7) of over 2 µM, an IC50 (EKVX; Homo sapiens, EKVX) of over 2 µM and an IC50 (NCI-H82) of over 2 µM. It also gave an IC50 (TGBC24TKB; Homo sapiens, TGBC24TKB) of over 2 µM, an IC50 (SH-4; Homo sapiens, SH-4) of over 2 µM and an IC50 (A704; Homo sapiens, A704) of 0.892 µM. It also gave an IC50 (CCRF-CEM) of over 2 µM, an IC50 (NCI-H1395; Homo sapiens, NCI-H1395) of over 2 µM and an IC50 (NKM-1) of over 2 µM. The IC50 (LB1047-RCC; Homo sapiens, LB1047-RCC) was 1.55 µM, the IC50 (ATN-1) was over 2 µM and the IC50 (EW-24) was 0.627 µM. For the same molecule, the IC50 (HH) was over 2 µM, the IC50 (no-11; Homo sapiens) was over 2 µM and the IC50 (RKO; Homo sapiens, RKO) was over 2 µM. It also gave an IC50 (BE-13) of over 2 µM, an IC50 (LAN-6; Homo sapiens, LAN-6) of over 2 µM and an IC50 (GCIY; Homo sapiens, GCIY) of over 2 µM. The IC50 (IST-MES1; Homo sapiens, IST-MES1) was over 2 µM, the IC50 (KG-1) was over 2 µM and the IC50 (RH-1; Homo sapiens, RH-1) was over 2 µM. The IC50 (KLE; Homo sapiens, KLE) was over 2 µM and the IC50 (OS-RC-2; Homo sapiens, OS-RC-2) was 1.89 µM.
